Reference: the kinase profiling compilation of Christmann-Franck et al. (2016)

These compounds were tested on ARAF (human), P10398 [Y301D/Y302D] (assay: radiometric filter-binding kinase assay, Kinase HotSpot). Conditions: compound 0.5 µM; ATP 10 µM.
ARAF (human), P10398 [Y301D/Y302D], sequence (P10398 whole entry Y301D/Y302D, looked up): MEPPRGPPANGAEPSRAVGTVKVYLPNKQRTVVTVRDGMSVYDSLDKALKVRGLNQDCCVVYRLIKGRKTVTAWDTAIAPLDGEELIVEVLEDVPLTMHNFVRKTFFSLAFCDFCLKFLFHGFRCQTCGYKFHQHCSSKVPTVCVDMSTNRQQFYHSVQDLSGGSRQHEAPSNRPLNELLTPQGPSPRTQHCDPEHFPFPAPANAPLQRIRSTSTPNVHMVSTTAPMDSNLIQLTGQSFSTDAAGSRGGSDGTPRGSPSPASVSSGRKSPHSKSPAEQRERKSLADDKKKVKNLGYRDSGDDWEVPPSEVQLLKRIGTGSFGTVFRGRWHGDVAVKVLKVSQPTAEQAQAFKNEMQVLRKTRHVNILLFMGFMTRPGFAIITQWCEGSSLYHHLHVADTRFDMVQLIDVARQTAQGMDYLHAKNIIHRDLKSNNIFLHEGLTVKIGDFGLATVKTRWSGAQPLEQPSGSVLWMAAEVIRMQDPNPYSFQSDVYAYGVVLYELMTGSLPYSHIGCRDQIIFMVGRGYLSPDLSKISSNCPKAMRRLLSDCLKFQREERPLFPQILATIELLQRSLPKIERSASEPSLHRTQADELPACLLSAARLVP

Point of comparison: `N#Cc1c[nH]c2c[nH]/c(=N\Cc3cccnc3)cc2/c1=N\c1ccc(F)c(Cl)c1`, residual activity 106%. Against it:
- CCc1nc(-c2ccc(OC)cc2)[nH]c1-c1ccncc1 — lower, 99.6%
- COc1ccc(COc2ccc(Cc3cnc(N)nc3N)cc2OC)cc1 — lower, 96.6%
- O=C1Nc2ccccc2/C1=C1\Nc2ccccc2\C1=N/O — lower, 100%
- CC#CC(=O)Nc1cc2c(Nc3ccc(F)c(Cl)c3)ncnc2cn1 — lower, 74.1%
- FC(F)(F)c1ccc(/C=C/c2nc(COc3ccc(CCCCn4ccnn4)cc3)co2)cc1 — lower, 102%
- O=C1Nc2ccc(Br)cc2/C1=C\c1cc2c([nH]1)CCCC2 — the same, 106%
- O=C1NC(=O)c2cc(Nc3ccc(F)cc3)c(Nc3ccc(F)cc3)cc21 — lower, 90.7%
- CCOc1cc2ncnc(Nc3cccc(Br)c3)c2cc1OCC — lower, 105%
- O=C1NC(=O)/C(=C\c2ccc3nccnc3c2)S1 — lower, 103%
- CCN(CC)CCNC(=O)c1c(C)[nH]c(/C=C2\C(=O)Nc3ccc(F)cc32)c1C — higher, 124%
- CCn1cnc2c(Nc3cccc(Cl)c3)nc(N[C@@H]3CCCC[C@@H]3N)nc21 — higher, 116%
- CC[n+]1c(/C=C/N(C)c2ccccc2)n(-c2ccccc2)c2ccc(-c3nc4ccccc4s3)cc21 — lower, 102%
- CNC(=O)c1cc(Oc2ccc(NC(=O)Nc3ccc(Cl)c(C(F)(F)F)c3)cc2)ccn1 — lower, 7.04%
- Cc1cc(Nc2nc(-c3ccccc3)nc3ccccc23)n[nH]1 — lower, 89.7%
- Nc1nccc(-c2c(-c3ccc(F)cc3)ncn2C2CCNCC2)n1 — lower, 93.1%
- O=C1NC(=O)/C(=C/c2ccc3c(c2)OC(F)(F)O3)S1 — lower, 104%
- COc1ccc2c(c1)/C(=C/c1cnc[nH]1)C(O)=N2 — higher, 111%
- c1ccc(-c2n[nH]cc2-c2ccnc3ccccc23)nc1 — lower, 91.5%
- CN(C)S(=O)(=O)c1ccc2c(c1)/C(=C/c1cc3c([nH]1)CCCC3)C(=O)N2 — lower, 105%
- CN(C)c1ccc(/C=C2\C(=O)Nc3ccccc32)cc1 — lower, 94.3%
- Cn1c2ccccc2c2c3c(c4c5ccccc5n(CCC#N)c4c21)CNC3=O — lower, 103%
- N#CCCc1ccc2c(c1)-c1[nH]c3ccc([N+](=O)[O-])cc3c1CC(=O)N2 — lower, 94.5%
- N#C/C(=C\c1ccc(O)c(O)c1)C(=O)NCc1ccccc1 — lower, 95.2%
- CC(C)N(CCC(=O)c1ccc2ccccc2c1)Cc1ccccc1 — lower, 104%
- Cn1cnc2cc3c(Nc4cccc(Br)c4)ncnc3cc21 — higher, 119%
- O=S(=O)(NCCNC/C=C/c1ccc(Br)cc1)c1cccc2cnccc12 — lower, 95.8%
- O=C(Nc1cccc(Nc2nccc(Nc3cccc(C(F)(F)F)c3)n2)c1)C1CC1 — lower, 90.2%
- CN(C)C[C@H]1CCn2c(c(C3=C(c4cn(C)c5ccccc45)C(=O)NC3=O)c3ccccc32)C1 — higher, 109%
- CO[C@@H]1[C@H](N(C)C(=O)c2ccccc2)C[C@H]2O[C@]1(C)n1c3ccccc3c3c4c(c5c6ccccc6n2c5c31)C(=O)NC4 — higher, 122%
- N#CC(C#N)=C(N)/C(C#N)=C/c1ccc(O)cc1 — lower, 90.8%
- Nc1ncnc2c1c(-c1ccc(Oc3ccccc3)cc1)cn2C1CCCC1 — lower, 53%
- N#Cc1c(NC(=O)c2cccc3ccccc23)sc2c1CCCC2 — lower, 104%
- COc1cc2ncc(-c3ccccc3)nc2cc1OC — lower, 87.6%
- CCCCc1c(-c2ccc(O)cc2)[nH]c2nccnc12 — lower, 92.6%
- O=C(O)c1ccc2c3c1cccc3c(=O)n1c3ccccc3nc21 — lower, 101%
- Nc1ncnc2c1cnn2-c1ccccc1 — lower, 99.3%
- N#C/C(=C(/N)Sc1ccc(N)cc1)c1ccccc1C(F)(F)F — lower, 98.8%
- Cc1ccc(NC2=CC(=O)c3sc(C)nc3C2=O)cc1 — higher, 127%
- N#C/C(=C1/Nc2ccccc2S1)c1ccnc(NCCc2cccnc2)n1 — lower, 97.6%
- COc1cc2c(N3CCN(C(=O)Nc4ccc(OC(C)C)cc4)CC3)ncnc2cc1OCCCN1CCCCC1 — lower, 103%
- COc1ccc(CNC(=O)Nc2ncc([N+](=O)[O-])s2)cc1 — lower, 91%
- Nc1nnc2[nH]c3ccccc3nc1-2 — higher, 119%
- Nc1ncnc2[nH]nc(Nc3ccc(F)cc3)c12 — lower, 80.7%
- COc1cccc(-c2cc(=O)c3ccccc3o2)c1N — lower, 98.9%
- CCC(=O)Nc1ccc2ncnc(Nc3cccc(Br)c3)c2c1 — lower, 93.4%
- COc1ccc(Cl)cc1NC(=O)Nc1cc(C)nc2ccccc12 — lower, 92.4%
- COc1cc2ncnc(Nc3ccc(Oc4ccccc4)cc3)c2cc1OC — lower, 73.3%
- Cc1ccc(Nc2nccc(N(C)c3ccc4c(C)n(C)nc4c3)n2)cc1S(N)(=O)=O — lower, 76.5%
- O=C(c1cc2cc(O)ccc2[nH]1)c1cc2cc(O)ccc2[nH]1 — lower, 98.6%
- COc1cc2c(Nc3ccc(Br)cc3F)ncnc2cc1OCC1CCN(C)CC1 — lower, 84%
- O=C1Cc2c([nH]c3ccc(Br)cc23)-c2ccccc2N1 — lower, 104%
- O=C(Nc1cccc(Nc2cc(Nc3cccc(C(F)(F)F)c3)ncn2)c1)C1CC1 — lower, 95.1%
- Nc1cccc(-c2cc3c(Oc4cccc(O)c4)ncnc3[nH]2)c1 — lower, 57.3%
- COc1cc2c(cc1OC)-c1[nH]nc(Nc3cccc(F)c3)c1C2 — lower, 98.9%
- O=C1C(Cl)=C(N2C(=O)CCC2=O)C(=O)c2ccccc21 — lower, 105%
- O=C(CCCc1ccc(-c2ccccc2F)cc1)Nc1ccc(O)cc1 — lower, 104%
- Cc1cccc(-c2nc(C(C)(C)C)[nH]c2-c2ccc3c(c2)OCO3)n1 — lower, 99.1%
- Cn1sc(=O)n(Cc2ccccc2)c1=O — lower, 94.6%
- CCOC(=O)c1c(C)[nH]c(/C=C2\C(=O)Nc3ccccc32)c1C — lower, 94.7%
- O=c1[nH]c2ccccc2n1C1CCN(Cc2ccc(-c3nc4cc5[nH]cnc5cc4nc3-c3ccccc3)cc2)CC1 — lower, 99.2%
- O=C1NC(=O)c2c1c1c3ccccc3[nH]c1n1cncc21 — lower, 93.8%
- O=c1cc(N2CCOCC2)oc2c(-c3ccccc3)cccc12 — lower, 105%
- C[C@@H]1CCN(C(=O)CC#N)C[C@@H]1N(C)c1ncnc2[nH]ccc12 — lower, 102%
- O=C1NC(=O)C(c2c[nH]c3ccccc23)=C1c1c[nH]c2ccccc12 — higher, 155%
- CCN(CC)CCNC(=O)c1c(C)[nH]c(/C=C2\C(=O)Nc3ccc(Cl)cc32)c1C — higher, 132%
- CCN(CC)CCCCN1c2ccccc2Oc2ccc(Cl)cc21 — lower, 103%
- COc1ccc(OC)c2c(=S)c3ccccc3[nH]c12 — higher, 122%
- COc1cc2ncnc(Nc3cccc(Cl)c3)c2cc1OC — higher, 108%
- Cc1[nH]c(/C=C2\C(=O)Nc3ccc(S(=O)(=O)N(C)c4cccc(Cl)c4)cc32)c(C)c1C(=O)N1CCN(C)CC1 — higher, 120%
- c1ccc2c(-c3ccncc3)c[nH]c2c1 — lower, 97.7%
- Oc1cccc(-c2nc(N3CCOCC3)c3oc4ncccc4c3n2)c1 — lower, 92%
- c1ccc(-c2n[nH]c3c2oc2ccccc23)cc1 — lower, 93.8%
- CS(=O)(=O)CCNCc1ccc(-c2ccc3ncnc(Nc4ccc(OCc5cccc(F)c5)c(Cl)c4)c3c2)o1 — lower, 85%
- CN(C)CCCn1cc(C2=C(c3c[nH]c4ccccc34)C(=O)NC2=O)c2ccccc21 — lower, 100%
- COc1cc(Nc2c(C#N)cnc3cc(OCCCN4CCN(C)CC4)c(OC)cc23)c(Cl)cc1Cl — higher, 109%
- CC(C)[C@H](CO)Nc1nc(Nc2cc(N)cc(Cl)c2)c2ncn(C(C)C)c2n1 — lower, 82.4%
